Data published in patent US20220372008A1 (VIDYASIRIMEDHI INSTITUTE OF SCIENCE AND TECHNOLOGY, priority 2019, published 2022).

B1: HadA G513T: modified HadA, thermostable dehalogenase with amino acid sequence SEQ ID NO.1 (protein, listed as Escherichia coli)
chain: MIRTGTQYLESLNDGRNVWVGNEKIDNVATHPKTRDYAQRHADFYDLHHRPDLQDVMTYIDEGGQRRAMQWFGHRDKEQLRRKRKYHETVMREMAGASFPRTPDVNNYVLTTYIDDPAPWETQSIGDDGHIKAGKIVDFIRYAREHDLNCAPQFVDPQMDRSNPDAQERSPGLRVVEKNEKGIVVNGVKAIGTGVAFADWIHIGVFFRPGIPGDQVIFAATPVNTPGVTIVCRESLVKDDKVEHPLAAQGDELDGMTVFENVFIPWSHVFHIGNPNHAKLYPQRVFDWLHYHALIRQMVRAELVAGLAVLITEHIGTNKIPAVQTRVAKLIGFHQAMLAHLIASEELGFHTPGGHYKPNILIYDFGRALYLENFSQMIYELVDLSGRSALIFASEDQWNDDKLNGWFERMNNGPVGRPHDRVKIGRVIRDLFLTDWGSRLFVFENFNGTPLQGIRMLTMQRAEFSGSGPYGKLARQVCGIDSAVTDDTEYRKTADYAKALDAARHQEEVALATAMAI

Legend:
firefly luciferase = firefly luciferase (Photinus pyralis, UniProt P08659)
Chain of firefly luciferase (P08659 whole entry): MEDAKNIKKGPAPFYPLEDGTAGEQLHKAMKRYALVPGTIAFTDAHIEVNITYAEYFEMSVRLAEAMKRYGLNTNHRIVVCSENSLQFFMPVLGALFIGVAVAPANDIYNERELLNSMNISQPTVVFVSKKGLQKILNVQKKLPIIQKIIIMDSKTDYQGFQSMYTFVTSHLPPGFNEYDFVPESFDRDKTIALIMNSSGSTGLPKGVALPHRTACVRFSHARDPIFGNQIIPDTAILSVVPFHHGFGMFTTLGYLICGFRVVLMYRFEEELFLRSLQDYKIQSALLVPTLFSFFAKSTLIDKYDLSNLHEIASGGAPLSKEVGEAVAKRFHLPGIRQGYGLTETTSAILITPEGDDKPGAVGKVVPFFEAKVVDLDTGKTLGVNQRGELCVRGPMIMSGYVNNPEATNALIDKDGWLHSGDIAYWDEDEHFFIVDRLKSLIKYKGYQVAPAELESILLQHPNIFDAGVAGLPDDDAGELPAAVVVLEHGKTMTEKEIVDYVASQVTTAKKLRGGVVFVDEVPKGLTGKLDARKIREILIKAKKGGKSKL
Method: The pure luciferin and the purified luciferin derivatives, which are derived from the synthesis and purification methods, reacts with the firefly luciferase, and then the emission wavelength is measured.
The reaction between the luciferin derivatives of the present disclosure and the firefly luciferase can emit the light.

[1] = assay type: physicochemical
Method: The term “thermostable dehalogenase” used herein refers to the dehalogenase or HadA, which is reengineered or modified, particularly modified on the surface of a wild-type dehalogenase or HadA. The reengineered or modified dehalogenase or HadA, which is called a thermostable HadA or HadA G513T, has an improvement on a temperature stability. The catalytic efficiency of the thermostable HadA or HadA G513T is in a broader range of temperature from 25-50° C. Further, the wild-type dehalogenase or HadA is a dechlorinating monooxygenase that can catalyze the elimination of nitro- and halides (F, Cl, Br, I) group from nitro- and halogenated phenols substrate. The wild type HadA can catalyze the reaction at 25° C. for 24 h. Whereas the reaction at higher temperature (>30° C.), the half-life of wild type HadA is dramatically decrease for 20 min. In accordance with various embodiments, the present disclosure relates to luciferin derivatives and a method for synthesis of the luciferin derivatives.
The thermostable dehalogenase is a modified HadA, particularly HadA G513T (Thermostable dehalogenase; HadA G513T), containing an amino acid sequence, which is set forth in SEQ ID NO.1 as shown in FIG. 8. The thermostable dehalogenase or HadA G513T is able to catalyze in a range of temperature from 25-50° C. and its half-life at 50° C. is 200 min. However, […]

Molecule	emitting wavelength as substrate for the firefly luciferase (firefly luciferase; spectrofluorometer under bioluminescent mode) [nm]	maximum emission wavelength (firefly luciferase; substrate for wild-type firefly luciferase, FIG. 5) [nm]	half-life [1] [h]
7′-bromoluciferin	604	604	
B1			3.33
